According to PMC2693246 (ACS chemical biology, 2009):
Values after ≈ are worked out from the molar mass of the structure shown. “Also recorded” adds a separate entry of the source.

Tests used:
F. tularensis LVS = assay: microbe, parasite or virus in culture; type: cell-based, Francisella tularensis; settings: for MIC90: Francisella tularensis
F. tularensis Schu4 = system: F. tularensis Schu4; design: species or system mice; settings: mouse, in vivo; for %Survival: ip, 200 mg/kg
in vitro = settings: African green monkey
ftuFabI [1] = biological target: T1, ftuFabI (Francisella tularensis subsp. tularensis, UniProt Q5NGQ3); assay: biochemical; type: biochemical
ftuFabI [2] = biological target: T1, ftuFabI; type: biochemical
ftuFabI [3] = biological target: T1, ftuFabI; type: biochemical; remark: listed apart in the source
ecFabI = settings: cited from earlier work

T1 sequence (Q5NGQ3 1-260): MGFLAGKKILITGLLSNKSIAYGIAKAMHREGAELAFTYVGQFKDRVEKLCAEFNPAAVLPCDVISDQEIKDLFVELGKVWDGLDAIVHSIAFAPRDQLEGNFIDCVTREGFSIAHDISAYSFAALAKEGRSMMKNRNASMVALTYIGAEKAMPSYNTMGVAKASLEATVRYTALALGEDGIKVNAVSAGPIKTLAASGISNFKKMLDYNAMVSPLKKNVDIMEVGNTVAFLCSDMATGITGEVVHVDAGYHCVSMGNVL

For Oc1cc(Cl)ccc1Oc1ccc(Cl)cc1Cl [Compound 1, triclosan, reference compound], the MIC90 (F. tularensis LVS) was 0.015 ng/mL (≈ 5.18e-05 µM), the “Median Survival” value (F. tularensis Schu4) was 7.8 days and the “efficacy in the 10-day animal model of infection” value (from here on “efficacy”) (F. tularensis Schu4) was “demonstrated efficacy”. The “%Survival” value (F. tularensis Schu4) was 22%, the CC50 (in vitro) was 14000 ± 1000 ng/mL (≈ 48.4 µM) and the Ki (ftuFabI [1]) was 407 ± 48 nM. The k2 (ftuFabI [1]) was 0.56 ± 0.04 min⁻¹, the “k−2” value (ftuFabI [1]) was 0.025 ± 0.003 min⁻¹ and the residence time (ftuFabI [1]) was 40 ± 3 min. For the same compound, the “Type of Inhibition” value (ftuFabI [2]) was “uncompetitive inhibitor; also recorded: Slow-onset” and the “fold tighter binding to E:NAD+ than to E:NADH” value (ftuFabI [2]) was “approximately 90,000 fold”.
With Oc1cc(F)ccc1Oc1ccccc1 [Compound 3, 5-fluoro-2-phenoxyphenol] the “fold decrease in binding affinity compared to 4 and 7” value (ftuFabI [3]) was 150 fold, the MIC90 (F. tularensis LVS) was 320 ± 20 ng/mL (≈ 1.57 µM) and the “Type of Inhibition” value (ftuFabI [2]) was “not a slow-onset inhibitor; also recorded: Rapid equilibrium”.
In the case of Oc1cc(Cl)ccc1Oc1ccccc1 [Compound 4, 5-chloro-2-phenoxyphenol], the “fold higher affinity for ecFabI than triclosan” value (ecFabI) is listed as 7 fold, the MIC90 (F. tularensis LVS) is listed as 1 ± 1 ng/mL (≈ 0.00453 µM) and the “Median Survival” value (F. tularensis Schu4) is listed as 6.8 days. The “efficacy” value (F. tularensis Schu4) was “demonstrated efficacy”, the “%Survival” value (F. tularensis Schu4) was 11% and the CC50 (in vitro) was 60000 ± 14000 ng/mL (≈ 272 µM). For the same compound, the Ki (ftuFabI [1]) was 665 ± 70 nM, the k2 (ftuFabI [1]) was 0.11 ± 0.01 min⁻¹ and the “k−2” value (ftuFabI [1]) was 0.033 ± 0.002 min⁻¹. For the same compound, the residence time (ftuFabI [1]) was 30 ± 2 min, the “Type of Inhibition” value (ftuFabI [2]) was “Slow-onset” and the “fold decrease in affinity for ftuFabI compared to triclosan” value (ftuFabI [2]) was 37 fold.
In the case of Cc1ccc(Oc2ccccc2)c(O)c1 [Compound 7, 5-methyl-2-phenoxyphenol], the MIC90 (F. tularensis LVS) is reported as 160 ± 70 ng/mL (≈ 0.799 µM) and the “Type of Inhibition” value (ftuFabI [2]) is reported as “slow-onset inhibitors”.
In the case of CCCc1ccc(Oc2ccccc2)c(O)c1 [Compound 9, 5-propyl-2-phenoxyphenol], the “fold more potent (MIC90) than doxycycline” value (F. tularensis LVS) is reported as > 4,000 fold, the “fold more potent (MIC90) than gentamicin” value (F. tularensis LVS) is reported as “more than 22,000 fold” and the MIC90 (F. tularensis LVS) is reported as 0.18 ± 0.14 ng/mL (≈ 0.000788 µM). The “Median Survival” value (F. tularensis Schu4) was 7.8 days, the “efficacy” value (F. tularensis Schu4) was “demonstrated efficacy” and the “%Survival” value (F. tularensis Schu4) was 39%. For the same compound, the CC50 (in vitro) was 62000 ± 3000 ng/mL (≈ 272 µM), the Ki (ftuFabI [1]) was 375 ± 6 nM and the k2 (ftuFabI [1]) was 1.66 ± 0.01 min⁻¹. The “k−2” value (ftuFabI [1]) was 0.017 ± 0.002 min⁻¹, the residence time (ftuFabI [1]) was 59 ± 2 min and the “Type of Inhibition” value (ftuFabI [2]) was “slow-onset inhibitors”.
C[C@H]1c2cccc(O)c2C(=O)C2=C(O)[C@]3(O)C(=O)C(C(N)=O)=C(O)[C@@H](N(C)C)[C@@H]3[C@@H](O)[C@@H]21 [Doxycycline, reference compound] showed an MIC90 (F. tularensis LVS) of 750 ± 350 ng/mL (≈ 1.69 µM).
CNC(C)C1CCC(N)C(OC2C(N)CC(N)C(OC3OCC(C)(O)C(NC)C3O)C2O)O1 (stereo not shown) [Gentamicin, reference compound] showed an MIC90 (F. tularensis LVS) of 4000 ng/mL (≈ 8.38 µM).
For [H]/N=C(/N)N[C@H]1[C@H](O)[C@@H](O)[C@H](O[C@@H]2O[C@@H](C)[C@](O)(C=O)[C@H]2O[C@@H]2O[C@@H](CO)[C@H](O)[C@@H](O)[C@@H]2NC)[C@@H](N/C(N)=N\[H])[C@@H]1O [Streptomycin, reference compound], the MIC90 (F. tularensis LVS) was 2000 ng/mL (≈ 3.44 µM).
